Measured values as given in paper PMC7053292 (Research in Pharmaceutical Sciences, 2020).
Like-named read-outs stand apart in the source and are kept apart here. Marks after values point to notes of the source that are not given here.

How the values were obtained:
[1] = biological target: T1, α-amylase from Aspergillus oryzae (Aspergillus oryzae, UniProt P0C1B3); experiment: biochemical; settings: for inhibition at 20 µM: read-out: Inhibition at 0.02 mM (%) α-Amylase; for inhibition percentage lower than standard inhibitor acarbose on α-amylase: ratio of inhibition percentages, acarbose vs sample
[2] = biological target: T2, α-glucosidase from Saccharomyces cerevisiae (Saccharomyces cerevisiae, UniProt P53341); experiment: Kinetic study on α-glucosidase; assay type: biochemical; settings: for α-Glucosidase inhibition type: Lineweaver-Burk and Dixon plots; for Ki: α-Glucosidase Ki, from slope (Km/Vmax) vs [I], substrate 4-pNPG, free enzyme
T2 sequence (P53341 whole entry): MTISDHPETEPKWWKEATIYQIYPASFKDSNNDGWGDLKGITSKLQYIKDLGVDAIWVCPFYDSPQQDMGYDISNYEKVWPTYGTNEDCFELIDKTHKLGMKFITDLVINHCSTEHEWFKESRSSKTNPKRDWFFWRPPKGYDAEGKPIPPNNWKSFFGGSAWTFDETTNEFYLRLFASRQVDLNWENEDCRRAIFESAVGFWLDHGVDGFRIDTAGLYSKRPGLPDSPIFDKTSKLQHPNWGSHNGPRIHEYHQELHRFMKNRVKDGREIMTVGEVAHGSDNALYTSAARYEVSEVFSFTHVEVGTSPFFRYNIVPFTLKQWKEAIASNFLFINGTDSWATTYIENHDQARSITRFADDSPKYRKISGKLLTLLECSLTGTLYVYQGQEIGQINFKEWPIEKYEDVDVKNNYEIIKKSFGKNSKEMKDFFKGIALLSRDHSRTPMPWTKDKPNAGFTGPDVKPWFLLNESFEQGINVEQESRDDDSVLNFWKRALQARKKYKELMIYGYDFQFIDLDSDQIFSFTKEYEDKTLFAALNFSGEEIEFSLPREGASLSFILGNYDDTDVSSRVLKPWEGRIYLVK

[3] = biological target: T1, α-amylase from Aspergillus oryzae; experiment: Kinetic study on α-amylase; assay type: biochemical; settings: for α-Amylase inhibition type: Lineweaver-Burk and Dixon plots; for Ki: substrate amylose
[4] = biological target: T2, α-glucosidase from Saccharomyces cerevisiae; experiment: α-Glucosidase assay; assay type: biochemical; settings: for inhibition percentage lower than standard inhibitor acarbose on α-glucosidase: ratio of inhibition percentages, acarbose vs sample; for inhibition at 20 µM: read-out: Inhibition at 0.02 mM (%) α-Glucosidase
DPPH assay = settings: mean ± SD, n = 3; for Inhibitory activity at 0.5 mM (%): DPPH; for IC50: read-out: IC50 (DPPH free radical scavenging)
[5] = IC50 values (mM) α-Amylase, mean ± SD, n = 3
[6] = α-Amylase Ki, from slope (Km/Vmax) vs [I], free enzyme
[7] = α-Amylase Ki´, from 1/Vmax vs [I], enzyme-substrate complex

| Structure (SMILES) | inhibition at 20 µM [1] [%] | α-Glucosidase inhibition type [2] | α-Amylase inhibition type [3] | IC50 [1] [mM] | IC50 [1, 5] [mM] | inhibition percentage lower than standard inhibitor acarbose on α-amylase [1] [times] | Ki [2] [µM] | IC50 [4] [µM] | inhibition percentage lower than standard inhibitor acarbose on α-glucosidase [4] | inhibition at 20 µM [4] [%] | Ki [3, 6] [µM] | Ki [3, 7] [µM] | Inhibitory activity at 0.5 mM (%) (DPPH assay) | IC50 (DPPH assay) [µM] | less potential on α-amylase than 4a on α-glucosidase (IC50 ratio) ([1]; IC50 on α-amylase vs IC50 of 4a on α-glucosidase) [times] | less potential on α-amylase than 4b on α-amylase (IC50 ratio) ([1]; IC50 on α-amylase vs IC50 of 4b on α-amylase) | less potential on α-amylase than 4b on α-glucosidase (IC50 ratio) ([1]; IC50 on α-amylase vs IC50 of 4b on α-glucosidase) |
| --- | --- | --- | --- | --- | --- | --- | --- | --- | --- | --- | --- | --- | --- | --- | --- | --- | --- |
| C[C@H]1O[C@H](O[C@H]2[C@H](O)[C@@H](O)[C@@H](O[C@H]3[C@H](O)[C@@H](O)C(O)O[C@@H]3CO)O[C@@H]2CO)[C@H](O)[C@@H](O)[C@@H]1N[C@H]1C=C(CO)[C@@H](O)[C@H](O)[C@H]1O (stereo partly shown) [Acarbose, acarbose, reference compound] | 61.7 ± 1.14 | Mixed type | Mixed type | – | – | – | – | – | – | – | – | – | – | – | – | – | – |
| CC(=O)C1CCCN1S(=O)(=O)c1ccc(C)cc1 (stereo not shown) [4b, N-(tosyl)-2-acetylpyrrolidine] | 30.1 ± 0.78 | Mixed type | Mixed type | 2.72 ± 0.09 | 3.21 ± 0.65 | ~2.13 | 230 | 1640 ± 80 | approximately 2.21 times | 32.31 ± 0.29 | 270 | 710 | 34.28 ± 0.73^b % | 1820 ± 48 | – | – | – |
| CC(=O)C1CCCN1Cc1ccccc1 (stereo not shown) [4a, N-(benzyl)-2-acetylpyrrolidine] | 28.9 ± 0.57 | Mixed type | Mixed type | 3.21 ± 0.65 | 2.72 ± 0.09 | ~2.13 | 290 | 520 ± 20 | approximately 2.21 times | 40.3 ± 0.8 | 230 | 2350 | 41.62 ± 0.64^a % | 1010 ± 10 | ~6.2 | approximately 1.20 times | approximately 2.0 times |
